Reference: patent publication US5700640A, “Inducers of gamma globin gene expression and screening assays therefor” (priority 1994, dated 1997)

Legend:
[1] = system: gamma globin gene expression (gamma3'PE reporter) in K562 cells; assay: gamma globin promoter-luciferase reporter assay in stably transfected gamma3'PE K562 cells
Experimental: The gamma globin 5' promoter and 3' enhancer fragments, alone or in combination with each other or another fragment, were inserted into restriction endonuclease sites flanking the coding sequences of the luciferase gene in pGL2 using standard recombinant DNA techniques (pGL2 was obtained commercially from Promega Biotech). Constructs were prepared which contained: 1) the gamma globin promoter alone upstream of the luciferase gene (gamma); 2) the gamma globin promoter upstream of the luciferase gene and the gamma globin 3' enhancer downstream of the luciferase gene (gamma3'PE); 3) the gamma globin promoter upstream of the luciferase gene and the SV40 enhancer downstream of the luciferase gene (gammaSV40); 4) the beta globin promoter upstream of the luciferase gene and the gamma globin 3' enhancer downstream of the luciferase gene Coeta3'PE); and 5) hypersensitive sites 2 and 3 G-IS2 and HS3) of the 5' globin enhancer upstream of the gamma globin promoter upstream of the luciferase gene and the gamma globin 3' enhancer downstream of the luciferase gene (HS2/3gamma3'PE). These constructs are illustrated schematically in FIG. 2.
The gamma globin-luciferase reporter gene constructs described in Example 1 were introduced into a human erythroleukemia cell line K562 (ATCC No. CCL 243). To create stable transfectants, K562 cells (5×10^6) in log phase were suspended in 400 μl HEPES buffered saline and then combined with 33.5 μg salmon testes DNA (Sigma), 1.5 μg neo plasmid (pPMT) and 15 μg reporter gene plasmid supercoiled that had been co-precipitated and suspended in 400 μl HEPES buffered saline. The DNA-cell mixture was electroporated at settings of 0.25 KV and 960 μFD using a Gene Pulser (BioRad Inc.) electropotation apparatus.
The cells were allowed to recover 10 minutes at room temperature, then added to 10 ml complete RPMI cell culture medium. Cell debris was removed by centrifugation at 1000 rpm for 5 minutes. The live cells were suspended in 20 ml RPMI in 2×10 cm dishes and grown in non-selective media for 48 hours. Stably transfected cells were then selected by growing the cells in media containing 300 μg/ml G418 for about one month. During this time the cells were split 1:5 every 3 to 4 days. Once the lines were stable, they were carried in 100 μg/ml G418. The cell lines were designated according to the reporter gene construct that was introduced into the cell line. For example, a cell line carrying the gamma'3PE construct was designated gamma3'PE. Transient transfections were carried out similarly except that the neo plasmid was omitted from the electroporation solution and the cells were not subjected to G418 selection.
K562 host cells carrying gamma globin-reporter gene constructs were used to lo screen compounds for their ability to induce globin gene expression, as measured by increased reporter gene activity in the host cells upon treatment with the compound. The host cells described in Example 2 were grown to log phase cells and plated at a density of 2×10^5 /ml in RPMI media without G418. After 24 hours, compounds to be assayed for their ability to induce globin gene expression were dissolved in RPMI media at a concentration of 5 mM and added to the K562 stable transfectants. Mock-treated stably transfected K562 cells served as a negative control. The cells were incubated with the test compounds at 37° C. for various time periods (e.g., 24, 50, 74 and 122 hours).
After induction with the test compounds, the cells were harvested, lysed and assayed for reporter gene activity (i.e., luciferase activity) as follows. Cells were collected, washed once with PBS and lysed in 200 μl Cell Culture Lysis 1 X Reagent (Promega Luciferase Assay System) consisting of 25 mM Tris-Phosphate pH 7.8; 2 mM DTT; 2 mM 1,2-diaminocyclohexane-N,N,N,N-tetraacetic acid; 10% glycerol; 1% Triton X-100.

gamma globin mRNA = assay: Northern hybridization of gamma globin mRNA in treated K562 cells; assay type: cell-based, human
Experimental: (§1) Total RNA was prepared by the method of McDonald as described in Sambrook et al., (1989) Molecular Cloning: A Laboratory Manual, 2nd Edition, Cold Spring Harbor Laboratory Press. 10 μg total cellular RNA was electrophoresed through agarose gels containing 3.3% formaldehyde. The electrophoresed RNA was then transferred to nitrocellulose filters by standard methods. Each sample was hybridized to specific probes for gamma globin mRNA, mRNA encoding the erythroid specific transcription factor GATA-1 and 28S ribosomal RNA (which was used for standardization). The gamma globin and GATA-1 probes were cDNA probes, which were labeled with ^32 p by random priming reactions (Promega Biotech Inc.). The 28S ribosomal RNA probe was an oligonucleotide having the sequence 5' […] 3' (SEQ ID NO: 3), which was labeled by 5' end labeling using T4 polynucleotide kinase (New England Biolabs). Nucleotide probes were hybridized to the RNA nitrocellulose filters according to standard techniques. After hybridization, radioactive signals on the nitrocellulose filters were directly quantified using a BioRad GS-250 Molecular Imager. mRNA hybridization intensities were normalized to the amount of 28S ribosomal RNA present for each sample.

[2] = system: gamma globin-regulated luciferase mRNA; assay: cells; assay type: cell-based, human; conditions: Homo sapiens, K562, 5 h, read-out: increase in luciferase mRNA
Experimental: as §1, with “sample. The results are summarized below in Table 1:” for “sample.”
To determine if BA exerts its inductive effects by acting directly on pre-existing proteins in the cells, the effect of the protein synthesis inhibitor cycloheximide (CHX) on BA-induced expression of RNA was analyzed. In these experiments, gamma3'PE cells were incubated with 150 μg/ml CHX for 2 hr prior to addition of BA (5 mM). Control cells were incubated with either CHX or BA alone or were mock incubated. Cells were harvested 5 hr later for preparation of total RNA. RNA samples were electrophoresed, transferred to nitrocellulose and hybridized to a ^32 P-labeled luciferase cDNA probe as described in Example 4. The radioactive signals on the filter were quantitated using a BioRad GS-250 Molecular Imager and mRNA levels were normalized to values obtained for mock treated samples. […]

What does the source list for `CCCC(=O)O` [BA, butyric acid]?
induction of gamma-globin reporter gene expression over time course (FIG. 3) ([1]; 5 mM, 24-122 hr, normalized to viable cells): initially a strong inducer of gamma-globin gene expression; level of induction by the conclusion of the time course (FIG. 3) ([1]; 5 mM, normalized to viable cells): dropped below the level of uninduced cells by the conclusion of the time course; fold induction at 5000 µM ([1]; Homo sapiens, K562, 72 h, read-out: fold induction of reporter gene activity (FIG. 6)): ~2; fold induction at 5000 µM (gamma globin mRNA; Homo sapiens, K562, 96 h, read-out: Fold Induction, gamma globin RNA): 1.3; Raw Value, gamma globin RNA (gamma globin mRNA; K562 cells, 5 mM, 96 hours): 3.58 × 10^6; Normalized Value, gamma globin RNA (gamma globin mRNA; normalized to 28S ribosomal RNA, K562 cells, 5 mM, 96 hours): 9.4 × 10^5; fold induction at 5000 µM [2]: ~6
